Assay results reported in the supplement of paper PMC6045584.
± gives the standard deviation of the averaged measurements.

Key:
SNX-5422 [1] = compound: T1, CC1(C)CC(=O)c2c(C(F)(F)F)nn(-c3ccc(C(N)=O)c(N[C@H]4CC[C@H](OC(=O)CN)CC4)c3)c2C1 [SNX-5422]; experiment: area under dose-response curve of surviving fraction (unscaled, Aref=0) (surviving fraction x log10(nM)); higher = more resistant; conditions: exposure time: 5 days; dose range 0.5-1000 nM
Procedure, shortened: (§1)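 Surviving fractions were fitted by 3-parameter logistic regression in the drc R package to give dose-response survival curves. They came from tumour cell lines treated for five days with eight inhibitor concentrations from 0.5 to 1000 nM and read by CellTiter-Glo luminescence against DMSO-only wells. The area under the curve is the unscaled activity area. It was calculated over log10 dose with Aref = 0.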

[2] = compound: Cn1cc(C2=Nc3cc(NC(=O)C(N)C4CCCCC4)cc4c3C2=CNNC4=O)cn1; experiment: as above; conditions: exposure time: 5 days; dose range 0.5-1000 nM
Procedure, shortened: as §1

BI-2536 [3] = compound: T2, CC[C@@H]1C(=O)N(C)c2cnc(Nc3ccc(C(=O)NC4CCN(C)CC4)cc3OC)nc2N1C1CCCC1 [BI-2536]; experiment: as above; conditions: exposure time: 5 days; dose range 0.5-1000 nM
Procedure, shortened: as §1

MDV3100 [4] = compound: T3, CNC(=O)c1ccc(N2C(=S)N(c3ccc(C#N)c(C(F)(F)F)c3)C(=O)C2(C)C)cc1F [MDV3100]; experiment: as above; conditions: exposure time: 5 days; dose range 0.5-1000 nM
Procedure, shortened: as §1

TIOGUANINE [5] = compound: T4, Nc1nc2[nH]cnc2c(=S)[nH]1 [TIOGUANINE]; experiment: as above; conditions: exposure time: 5 days; dose range 0.5-1000 nM
Procedure, shortened: as §1

CANERTINIB [6] = compound: T5, C=CC(=O)Nc1cc2c(Nc3ccc(F)c(Cl)c3)ncnc2cc1OCCCN1CCOCC1 [CANERTINIB]; experiment: as above; conditions: exposure time: 5 days; dose range 0.5-1000 nM
Procedure, shortened: as §1

SAPACITABINE [7] = compound: T6, CCCCCCCCCCCCCCCC(=O)Nc1ccn([C@@H]2O[C@H](CO)[C@@H](O)[C@@H]2C#N)c(=O)n1 [SAPACITABINE]; experiment: as above; conditions: exposure time: 5 days; dose range 0.5-1000 nM
Procedure, shortened: as §1

SNX-5422 [8] = compound: T1, SNX-5422; experiment: surviving fraction relative to DMSO-only wells; higher = less growth inhibition; conditions: exposure time: 5 days
Procedure, shortened: (§2)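 Continuous five-day exposure to inhibitors at 0.5, 1, 5, 10, 50, 100, 500 and 1000 nM started 24 hours after log-phase tumour cell lines were seeded at 250–500 cells per well in 384-well plates. Luminescence was read after 10 minutes at room temperature. Viability is given as surviving fraction, meaning CellTiter-Glo luminescence normalised to the median of DMSO-only wells.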

[9] = compound: Cn1cc(C2=Nc3cc(NC(=O)C(N)C4CCCCC4)cc4c3C2=CNNC4=O)cn1; experiment: as above; conditions: exposure time: 5 days
Procedure, shortened: as §2

BI-2536 [10] = compound: T2, BI-2536; experiment: as above; conditions: exposure time: 5 days
Procedure, shortened: as §2

MDV3100 [11] = compound: T3, MDV3100; experiment: as above; conditions: exposure time: 5 days
Procedure, shortened: as §2

TIOGUANINE [12] = compound: T4, TIOGUANINE; experiment: as above; conditions: exposure time: 5 days
Procedure, shortened: as §2

CANERTINIB [13] = compound: T5, CANERTINIB; experiment: as above; conditions: exposure time: 5 days
Procedure, shortened: as §2

AFATINIB = compound: CN(C)C/C=C/C(=O)Nc1cc2c(Nc3ccc(F)c(Cl)c3)ncnc2cc1O[C@H]1CCOC1 [AFATINIB]; experiment: as above; conditions: exposure time: 5 days
Procedure, shortened: as §2

SAPACITABINE [14] = compound: T6, SAPACITABINE; experiment: as above; conditions: exposure time: 5 days
Procedure, shortened: as §2

In the case of DU4475 BREAST, the “area under dose-response curve” value (SNX-5422 [1]) is reported as 1.76, the “area under dose-response curve” value [2] is reported as 2.46 and the “area under dose-response curve” value (BI-2536 [3]) is reported as 1.14. The “area under dose-response curve” value (MDV3100 [4]) was 3.04, the “area under dose-response curve” value (TIOGUANINE [5]) was 2.55 and the “area under dose-response curve” value (CANERTINIB [6]) was 2.65. For the same test system, the “area under dose-response curve” value (SAPACITABINE [7]) was 1.86, the surviving fraction (SNX-5422 [8]; 0.5 nM) was 1.07 ± 0.29 and the surviving fraction (SNX-5422 [8]; 1 nM) was 0.979 ± 0.18. It also gave a surviving fraction (SNX-5422 [8]; 5 nM) of 1.04 ± 0.17, a surviving fraction (SNX-5422 [8]; 10 nM) of 1.06 ± 0.26 and a surviving fraction (SNX-5422 [8]; 50 nM) of 0.03 ± 0.013. For the same test system, the surviving fraction (SNX-5422 [8]; 100 nM) was 0.0313 ± 0.0065, the surviving fraction (SNX-5422 [8]; 500 nM) was 0.029 ± 0.0052 and the surviving fraction (SNX-5422 [8]; 1000 nM) was 0.0317 ± 0.0072. For the same test system, the surviving fraction ([9]; 0.5 nM) was 0.979 ± 0.32, the surviving fraction ([9]; 1 nM) was 0.981 ± 0.17 and the surviving fraction ([9]; 5 nM) was 1.03 ± 0.2. The surviving fraction ([9]; 10 nM) was 0.96 ± 0.19, the surviving fraction ([9]; 50 nM) was 0.821 ± 0.25 and the surviving fraction ([9]; 100 nM) was 0.659 ± 0.19. For the same test system, the surviving fraction ([9]; 500 nM) was 0.136 ± 0.026, the surviving fraction ([9]; 1000 nM) was 0.0377 ± 0.0084 and the surviving fraction (BI-2536 [10]; 0.5 nM) was 0.997 ± 0.25. It also gave a surviving fraction (BI-2536 [10]; 1 nM) of 1.04 ± 0.051, a surviving fraction (BI-2536 [10]; 5 nM) of 0.536 ± 0.15 and a surviving fraction (BI-2536 [10]; 10 nM) of 0.233 ± 0.047. For the same test system, the surviving fraction (BI-2536 [10]; 50 nM) was 0.0763 ± 0.027, the surviving fraction (BI-2536 [10]; 100 nM) was 0.057 ± 0.015 and the surviving fraction (BI-2536 [10]; 500 nM) was 0.031 ± 0.0053. For the same test system, the surviving fraction (BI-2536 [10]; 1000 nM) was 0.027 ± 0.002, the surviving fraction (MDV3100 [11]; 0.5 nM) was 0.806 ± 0.11 and the surviving fraction (MDV3100 [11]; 1 nM) was 0.938 ± 0.086. For the same test system, the surviving fraction (MDV3100 [11]; 5 nM) was 0.832 ± 0.098, the surviving fraction (MDV3100 [11]; 10 nM) was 0.992 ± 0.052 and the surviving fraction (MDV3100 [11]; 50 nM) was 0.958 ± 0.074. It also gave a surviving fraction (MDV3100 [11]; 100 nM) of 0.907 ± 0.089, a surviving fraction (MDV3100 [11]; 500 nM) of 0.965 ± 0.11 and a surviving fraction (MDV3100 [11]; 1000 nM) of 0.933 ± 0.046. It also gave a surviving fraction (TIOGUANINE [12]; 0.5 nM) of 0.746 ± 0.054, a surviving fraction (TIOGUANINE [12]; 1 nM) of 1 ± 0.31 and a surviving fraction (TIOGUANINE [12]; 5 nM) of 0.784 ± 0.2. It also gave a surviving fraction (TIOGUANINE [12]; 10 nM) of 0.798 ± 0.17, a surviving fraction (TIOGUANINE [12]; 50 nM) of 0.687 ± 0.23 and a surviving fraction (TIOGUANINE [12]; 100 nM) of 0.743 ± 0.24. For the same test system, the surviving fraction (TIOGUANINE [12]; 500 nM) was 0.721 ± 0.4, the surviving fraction (TIOGUANINE [12]; 1000 nM) was 0.704 ± 0.29 and the surviving fraction (CANERTINIB [13]; 0.5 nM) was 0.819 ± 0.11. The surviving fraction (CANERTINIB [13]; 1 nM) was 0.797 ± 0.088, the surviving fraction (CANERTINIB [13]; 5 nM) was 0.782 ± 0.099 and the surviving fraction (CANERTINIB [13]; 10 nM) was 0.742 ± 0.15. It also gave a surviving fraction (CANERTINIB [13]; 50 nM) of 0.976 ± 0.12, a surviving fraction (CANERTINIB [13]; 100 nM) of 0.919 ± 0.045 and a surviving fraction (CANERTINIB [13]; 500 nM) of 0.79 ± 0.18. For the same test system, the surviving fraction (CANERTINIB [13]; 1000 nM) was 0.596 ± 0.13, the surviving fraction (AFATINIB; 0.5 nM) was 1.05 ± 0.26 and the surviving fraction (AFATINIB; 1 nM) was 1.08 ± 0.31. It also gave a surviving fraction (AFATINIB; 5 nM) of 0.851 ± 0.034, a surviving fraction (AFATINIB; 10 nM) of 1.11 ± 0.25 and a surviving fraction (AFATINIB; 50 nM) of 1.17 ± 0.15. For the same test system, the surviving fraction (AFATINIB; 100 nM) was 0.997 ± 0.089, the surviving fraction (AFATINIB; 500 nM) was 1.08 ± 0.25 and the surviving fraction (AFATINIB; 1000 nM) was 0.788 ± 0.042. It also gave a surviving fraction (SAPACITABINE [14]; 0.5 nM) of 0.637 ± 0.062, a surviving fraction (SAPACITABINE [14]; 1 nM) of 0.863 ± 0.13 and a surviving fraction (SAPACITABINE [14]; 5 nM) of 0.743 ± 0.051. The surviving fraction (SAPACITABINE [14]; 10 nM) was 0.699 ± 0.12, the surviving fraction (SAPACITABINE [14]; 50 nM) was 0.655 ± 0.077 and the surviving fraction (SAPACITABINE [14]; 100 nM) was 0.458 ± 0.049. The surviving fraction (SAPACITABINE [14]; 500 nM) was 0.16 ± 0.033 and the surviving fraction (SAPACITABINE [14]; 1000 nM) was 0.0713 ± 0.018.
